EC50, Activity and CC50 data for three molecules are collected here from ChEMBL document CHEMBL1143923, “Synthesis, anti-HIV-1 activity, and modeling studies of N-3 Boc TSAO compound” (Bioorg Med Chem Lett, 2008).

Calls of active or inactive are those of the source. The rule behind the calls is not given here.

Data set [1] concerns Human immunodeficiency virus 1. Nature of the data set: Antiviral activity against HIV1 3B in CEM cells assessed as inhibition of viral replication. Conditions: Human immunodeficiency virus 1, 3B, CCRF-CEM. Format: functional, organism-based.
Data set [2] deals with Human immunodeficiency virus 2. Nature of the data set: Antiviral activity against HIV2 ROD in CEM cells assessed as inhibition of viral replication. Format: functional, organism-based. To be noted: CCRF-CEM.
A short description of data set [3]: Cytotoxicity against human CEM cells. To be noted: CEM (CCRF-CEM) cells. The format is cell-based.

For the molecule `Cc1cn([C@@H]2O[C@H](CO[Si](C)(C)C(C)(C)C)[C@@]3(OS(=O)(=O)C=C3N)[C@H]2O[Si](C)(C)C(C)(C)C)c(=O)n(C)c1=O`, the EC50 in data set [1] was 130 nM. Besides, the result in data set [2] was inactive.

On to `Cc1cn([C@@H]2O[C@H](CO[Si](C)(C)C(C)(C)C)[C@@]3(OS(=O)(=O)C=C3N)[C@H]2O[Si](C)(C)C(C)(C)C)c(=O)[nH]c1=O`, for which the EC50 in data set [1] is 60 nM. Further, the outcome in data set [2] was inactive.

Consider `Cc1cn([C@@H]2O[C@H](CO[Si](C)(C)C(C)(C)C)[C@@]3(OS(=O)(=O)C=C3N)[C@H]2O[Si](C)(C)C(C)(C)C)c(=O)n(C(=O)OC(C)(C)C)c1=O`, for which the EC50 in data set [1] turned out to be 23 nM. Moreover, in data set [3], the CC50 stood at 26200 nM. Moreover, the outcome in data set [2] was inactive.
